Results from patent publication EP4785945A1, “THERAPEUTIC AGENT FOR RHEUMATOID ARTHRITIS” (Teijin Pharma Limited, priority 2023, dated 2025).
One block for each molecule: values may come before it.

Experiments:
[1] = package insert; cited from earlier work
[2] = test system: matrix metalloproteinase-3 (MMP-3); experiment: MMP-3 secretion by synovial cells stimulated with TNF-α and IL-1β; assay type: cell-based; settings: Synovial cell, relative to baseline after TNF-α and IL-1β stimulation without Compound 1, read-out: suppression of MMP-3 secretion
Experimental: (§1) The synovial cells used in the test were derived from rheumatoid arthritis patients. The synovial cells were stimulated with tumor necrosis factor-α (TNF-α) and interleukin-1β (IL-1β) at the time of the test, and the effect of Compound 1 was measured. […] Furthermore, with regard to matrix metalloproteinase-3 (MMP-3), which is a mediator involved in tissue destruction, relative to a baseline after TNF-α and IL-1β stimulation without any added Compound 1, Compound 1 suppressed secretion in a dosage-dependent manner, by 14% when 10 nM was added, 21% when 30 nM was added, 37% when 100 nM was added, 60% when 300 nM was added, and 63% when 1000 nM was added.

[3] = test system: granulocyte macrophage colony-stimulating factor (GM-CSF); experiment: GM-CSF secretion by synovial cells stimulated with TNF-α and IL-1β; assay type: cell-based; settings: relative to baseline after TNF-α and IL-1β stimulation without Compound 1, read-out: suppression of GM-CSF secretion
Experimental: as §1

[4] = test system: rheumatoid arthritis patients; experiment: Clinical trial on rheumatoid arthritis patients: safety; assay type: in vivo, humans
Experimental: (§2) Compound 1 was orally administered at dosages of 10, 25, 75, or 175 mg once daily for seven days (double-blind study) to 32 rheumatoid arthritis patients (six patients for each dosage of Compound 1 administration, and two patients for each dosage of placebo administration).
(§3) Endpoints included: items related to disease activity and pain (DAS28-CRP, ACR20, VAS scale pain score, and TJC) to represent efficacy; vital signs (blood pressure, pulse, body temperature, and respiratory rate), physical findings, electrocardiograms, hematological tests, blood biochemistry tests, and the severity and frequency of adverse events to represent safety; and changes in the plasma concentration of Compound 1 to represent pharmacokinetics (PK).

[5] = Clinical trial on rheumatoid arthritis patients: pharmacokinetics (plasma concentration); assay type: in vivo, humans; settings: human, Day 7 after administration
Experimental: as §2, §3

[6] = test system: rat adjuvant-induced arthritis (AIA) model; experiment: Combination study with methotrexate, Arthritis Score; assay type: in vivo
Experimental: The effect of combining Compound 1 with methotrexate was measured using a rat adjuvant-induced arthritis (AIA) model. The effect was evaluated using the Arthritis Score. […] Compared to the control, the scores decreased by 33% when only Compound 1 was used, by 59% when only methotrexate was used, and by 86% when Compound 1 and methotrexate were used in combination. On the other hand, in this study, there was no decrease in the number of bone marrow cells even when Compound 1 and methotrexate were used in combination.

[7] = test system: rheumatoid arthritis patients; experiment: Clinical trial on rheumatoid arthritis patients: efficacy (ACR20, DAS28-CRP, VAS scale pain score, TJC); assay type: in vivo, humans
Experimental: as §2, §3
DAS28-CRP was used to determine whether there was improvement or no improvement based on the differences between the values on Day 1 and Day 7 of administration, in accordance with the criteria shown in Table 1 (EULAR criteria).
ACR20 was used to determine whether there was an improvement based on the ACR20 on Day 1 and Day 7 of administration.
The percentage change in the VAS scale pain score is the percentage change in the score on Day 7 compared to the score on Day 1.
The percentage change in the TJC score is the percentage change in the value on Day 7 compared to the value on Day 1.

[8] = test system: rat AIA model; experiment: Combination study with tofacitinib, Arthritis Score; assay type: in vivo; settings: 30 mg/kg/day
Experimental: The effect of combining compound 1 with tofacitinib was measured using a rat AIA model. The effect was evaluated using the Arthritis Score.

[9] = test system: synovial cells and bone marrow cells; assay type: in vitro ADME
Experimental: Cultured synovial cells and bone marrow cells were used. Compound 1 was added, and the intracellular concentration in the synovial cells and bone marrow cells and the concentration in the culture medium were measured.

[10] = test system: synovial cells; experiment: Proliferation of synovial cells stimulated with TNF-α and IL-1β; assay type: cell-based; settings: Synovial cell, relative to baseline after TNF-α and IL-1β stimulation without Compound 1, read-out: suppression of proliferation of synovial cells
Experimental: as §1

[11] = test system: mouse anti-collagen antibody-induced arthritis (CAIA) model; experiment: Combination study with etanercept, Arthritis Score; assay type: in vivo; settings: Compound 1 alone, 50 mg/kg/day
Experimental: The effect of combining Compound 1 with etanercept was measured using a mouse anti-collagen antibody-induced arthritis (CAIA) model. The effect was evaluated using the Arthritis Score. […] Compared to the control, the scores decreased by 64% when only Compound 1 was used, by 62% when only etanercept was used, and by 97% when Compound 1 and etanercept were used in combination.

[12] = Day 1 to Day 7 of administration and three-day follow-up (up to Day 10)
[13] = all administration groups (10 to 175 mg)
[14] = 25 mg, 75 mg, and 175 mg administration groups, Day 7 compared to Day 1
[15] = 75 mg administration group, Day 7 compared to Day 1

Structure (SMILES): CCN1CCN(Cc2ccc(Nc3ncc(F)c(-c4cc(F)c5nc(C)n(C(C)C)c5c4)n3)nc2)CC1 [abemaciclib]
incidence of the side effect of neutropenia [1]: 42.2%

half-life at 168 h ([5]; 10 mg once daily oral): 12.9 h | half-life at 168 h ([5]; 25 mg once daily oral): 11.9 h | half-life at 168 h ([5]; 75 mg once daily oral): 14.6 h | half-life at 168 h ([5]; 175 mg once daily oral): 10.4 h | distribution ratio between synovial cells and bone marrow cells [9]: 84:16
Structure (SMILES): CC(C)Nc1nc([C@@H](C)O)cc2cnc(Nc3ccc(N4CCNCC4=O)cn3)nc12 [Compound 1, (R)-1-(6-((6-(1-hydroxyethyl)-8-(isopropylamino)pyrido[3,4-d]pyrimidin-2-yl)amino)pyridin-3-yl)piperazin-2-one]
inhibition at 0.01 µM ([2]; 10 nM): 14% | inhibition at 0.03 µM ([2]; 30 nM): 21% | inhibition at 0.1 µM ([2]; 100 nM): 37% | inhibition at 0.3 µM ([2]; 300 nM): 60% | inhibition at 1 µM ([2]; 1000 nM): 63% | inhibition at 0.008 µM ([3]; 8 nM): 17% | inhibition at 0.04 µM ([3]; 40 nM): 25% | inhibition at 0.2 µM ([3]; 200 nM): 48% | inhibition at 1 µM ([3]; 1000 nM): 65% | adverse events, cases (events) ([4]; 10 mg administration group): two cases (five events) | adverse events, cases (events) ([4]; 25 mg administration group): two cases (three events) | adverse events, cases (events) ([4]; 75 mg administration group): two cases (three events) | adverse events, cases (events) ([4]; 175 mg administration group): one case (one event) | neutropenia or decrease in neutrophil count [4, 12]: no neutropenia or decrease in neutrophil count | neutrophil count [4, 12]: maintained a constant neutrophil count | severe adverse events [4, 13]: no severe adverse events | severity of adverse events [4, 13]: mild to moderate | changes in vital signs, electrocardiograms, physical findings, hematological tests, or blood biochemistry tests ([4]; any dosage (10, 25, 75, 175 mg once daily, seven days)): No significant changes | decrease of Arthritis Score compared to the control ([6]; Compound 1 alone, 30 mg/kg/day): 33% | percentages of subjects who showed improvement in ACR20, compared with placebo group ([7]; 25 mg, 75 mg, and 175 mg administration groups, once daily oral, seven days): higher than in the placebo group | percentages of subjects who showed improvement in DAS28-CRP, compared with placebo group ([7]; 25 mg, 75 mg, and 175 mg administration groups, once daily oral, seven days, EULAR criteria): higher than in the placebo group | decreases in the TJC scores, compared with placebo group [7, 14]: higher than in the placebo group | decreases in the VAS scale pain scores, compared with placebo group [7, 14]: higher than in the placebo group | percentage of subjects who showed improvement in ACR20 ([7]; 75 mg administration group, once daily oral, seven days): 60% | percentage of subjects who showed improvement in DAS28-CRP ([7]; 75 mg administration group, once daily oral, seven days, EULAR criteria): 80% | percentage change in the TJC score [7, 15]: -40% | percentage change in the VAS scale pain score [7, 15]: -40% | decrease of Arthritis Score compared to the control ([8]; Compound 1 alone): 40% | inhibition at 0.01 µM ([10]; 10 nM): 5% | inhibition at 0.03 µM ([10]; 30 nM): 14% | inhibition at 0.1 µM ([10]; 100 nM): 19% | inhibition at 0.3 µM ([10]; 300 nM): 27% | inhibition at 1 µM ([10]; 1000 nM): 35% | decrease of Arthritis Score compared to the control [11]: 64%

Structure (SMILES): C[C@@H]1CCN(C(=O)CC#N)C[C@@H]1N(C)c1ncnc2[nH]ccc12 [tofacitinib, reference compound]
decrease of Arthritis Score compared to the control ([8]; tofacitinib alone): 67%

Structure (SMILES): CN(Cc1cnc2nc(N)nc(N)c2n1)c1ccc(C(=O)N[C@@H](CCC(=O)O)C(=O)O)cc1 [methotrexate, reference compound]
decrease of Arthritis Score compared to the control ([6]; methotrexate alone, 0.075 mg/kg/day): 59%
